Read-outs that look alike come from different tables or passages of the source. Where a SMILES comes first, the peptide text is derived from it. Where no end group is shown, it is not given here. [ ]: non-standard residue; d: D form. Aib = CC(C)(N)C(=O)O
Experiments:
[1] = tested on: Mouse monocyte/macrophage cell line, RAW 264.7; experiment: Cholesterol efflux assay (3H-cholesterol, macrophage cell line); assay type: cell-based; details: RAW 264.7, 4 hrs incubation, 0.1% human serum albumin; for 4 h Cholesterol Efflux Emax: ABCA1-mediated efflux; for EC50: read-out: 4 h Cholesterol Efflux EC50, ABCA1-mediated efflux (CPT-cAMP induced minus non-induced)
[2] = molecular target: human GLP-1 receptor (Homo sapiens, UniProt P43220); experiment: Functional GLP-1 receptor assay, in vitro potency (CRE luciferase; whole cells); assay type: cell-based; details: BHK cells expressing human GLP-1 receptor
Chain of human GLP-1 receptor (P43220 24-463): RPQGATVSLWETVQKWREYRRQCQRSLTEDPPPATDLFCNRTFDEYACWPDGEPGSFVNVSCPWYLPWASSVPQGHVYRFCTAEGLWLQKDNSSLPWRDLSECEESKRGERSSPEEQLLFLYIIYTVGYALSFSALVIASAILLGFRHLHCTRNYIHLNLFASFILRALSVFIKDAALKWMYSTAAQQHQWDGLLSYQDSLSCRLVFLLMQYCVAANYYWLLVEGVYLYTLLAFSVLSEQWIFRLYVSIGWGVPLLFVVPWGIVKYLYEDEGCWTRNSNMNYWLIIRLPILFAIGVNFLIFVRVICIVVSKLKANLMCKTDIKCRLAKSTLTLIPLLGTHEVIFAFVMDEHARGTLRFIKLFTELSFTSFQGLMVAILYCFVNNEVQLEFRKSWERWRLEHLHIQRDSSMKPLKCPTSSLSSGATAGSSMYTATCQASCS

[3] = GLP1R CRE luc 1% HSA EC50 Mean Value, 1% HSA
[4] = 0% HSA, read-out: GLP1R CRE luc 0% HSA EC50 Mean Value

Compound	EC50 [2, 3]	EC50 [2, 4]	4 h Cholesterol Efflux Emax [1]	EC50 [1]
CC[C@H](C)[C@H](NC(=O)[C@H](Cc1ccccc1)NC(=O)[C@H](CCC(=O)O)NC(=O)[C@H](CCCCN)NC(=O)[C@@H](NC(=O)[C@H](C)NC(=O)[C@H](CCC(=O)O)NC(=O)CNC(=O)[C@H](CCC(=O)O)NC(=O)[C@H](CC(C)C)NC(=O)[C@H](Cc1ccc(O)cc1)NC(=O)[C@H](CO)NC(=O)[C@H](CO)NC(=O)[C@@H](NC(=O)[C@H](CC(=O)O)NC(=O)[C@H](CO)NC(=O)[C@@H](NC(=O)[C@H](Cc1ccccc1)NC(=O)[C@@H](NC(=O)CNC(=O)[C@H](CCC(=O)O)NC(=O)C(C)(C)NC(=O)[C@@H](N)Cc1c[nH]cn1)[C@@H](C)O)[C@@H](C)O)C(C)C)C(C)C)C(=O)N[C@@H](C)C(=O)N[C@@H](Cc1c[nH]c2ccccc12)C(=O)N[C@@H](CC(C)C)C(=O)N[C@H](C(=O)N[C@@H](CCC(=O)O)C(=O)N[C@@H](CCCCN)C(=O)NC(C)(C)C(=O)N[C@@H](CCCCN)C(=O)N[C@@H](CCC(=O)O)C(=O)N[C@@H](Cc1ccccc1)C(=O)N[C@@H](CC(C)C)C(=O)N[C@@H](CCC(=O)O)C(=O)N[C@@H](CCCCN)C(=O)N[C@H](C(=O)O)C(C)C)C(C)C [Compound 98, [Aib8,Glu23,Val25,Glu34,Lys35,Aib36,Lys37]-GLP-1-(7-37)-peptidyl-Glu-Phe-Leu-Glu-Lys-Val]			132%	430 nM
CC[C@H](C)[C@H](NC(=O)[C@H](Cc1ccccc1)NC(=O)[C@H](CCC(=O)O)NC(=O)[C@H](CCCNC(=N)N)NC(=O)[C@@H](NC(=O)[C@H](C)NC(=O)[C@H](CCC(=O)O)NC(=O)[C@H](CCC(=O)O)NC(=O)[C@H](CCC(=O)O)NC(=O)[C@H](CCSC)NC(=O)[C@H](CCC(N)=O)NC(=O)[C@H](CCCCN)NC(=O)[C@H](CO)NC(=O)[C@H](CC(C)C)NC(=O)[C@H](CC(=O)O)NC(=O)[C@H](CO)NC(=O)[C@@H](NC(=O)[C@H](Cc1ccccc1)NC(=O)[C@@H](NC(=O)CNC(=O)[C@H](CCC(=O)O)NC(=O)C(C)(C)NC(=O)[C@@H](N)Cc1c[nH]cn1)[C@@H](C)O)[C@@H](C)O)C(C)C)C(=O)N[C@@H](CCC(=O)O)C(=O)N[C@@H](Cc1c[nH]c2ccccc12)C(=O)N[C@@H](CC(C)C)C(=O)N[C@@H](CCCCN)C(=O)N[C@@H](CC(N)=O)C(=O)N[C@@H](CCCCN)C(=O)NC(C)(C)C(=O)N[C@@H](CC(C)C)C(=O)N[C@@H](CCC(=O)O)C(=O)N[C@@H](Cc1ccccc1)C(=O)N[C@@H](CC(C)C)C(=O)N[C@@H](CCC(=O)O)C(=O)N[C@@H](CC(C)C)C(=O)N[C@@H](CC(C)C)C(=O)O [Compound 23, [Aib2,Glu21,Lys29,Aib30,Leu31,Glu32,Phe33,Leu34,Glu35,Leu36,Leu371-Exendin-4-(1-37)-peptide]			99%	730 nM
H-HAEGTFTSDVSSYLEGEAVKEFIAWLVEKVKEHLEK-OH [Compound 125, [Glu23,Val25,Glu34,Lys35,Val36,Lys37]-GLP-1-(7-37)-peptidyl-Glu-His-Leu-Glu-Lys]			111%	
CC[C@H](C)[C@H](NC(=O)[C@H](Cc1ccccc1)NC(=O)[C@H](CCC(=O)O)NC(=O)[C@H](CCCCN)NC(=O)[C@@H](NC(=O)[C@H](CCCCN)NC(=O)[C@H](CCC(=O)O)NC(=O)CNC(=O)[C@H](CCC(=O)O)NC(=O)[C@H](CC(C)C)NC(=O)[C@H](Cc1ccc(O)cc1)NC(=O)[C@H](CO)NC(=O)[C@H](CO)NC(=O)[C@@H](NC(=O)[C@H](CC(=O)O)NC(=O)[C@H](CO)NC(=O)[C@@H](NC(=O)[C@H](Cc1ccccc1)NC(=O)[C@@H](NC(=O)CNC(=O)[C@H](CCC(=O)O)NC(=O)C(C)(C)NC(=O)[C@@H](N)Cc1c[nH]cn1)[C@@H](C)O)[C@@H](C)O)C(C)C)C(C)C)C(=O)N[C@@H](C)C(=O)N[C@@H](Cc1c[nH]c2ccccc12)C(=O)N[C@@H](CC(C)C)C(=O)N[C@H](C(=O)N[C@@H](CCC(=O)O)C(=O)N[C@@H](CCCCN)C(=O)NC(C)(C)C(=O)N[C@@H](CCCCN)C(=O)N[C@@H](CCC(=O)O)C(=O)N[C@@H](Cc1ccccc1)C(=O)N[C@@H](CC(C)C)C(N)=O)C(C)C [Compound 60, [Aib8,Glu23,Lys24,Val25,Glu34,Lys35,Aib36,Lys37]-GLP-1-(7-37)-peptidyl-Glu-Phe-Leu amide] (H-H[Aib]EGTFTSDVSSYLEGEKVKEFIAWLVEK[Aib]KEFL-NH2)			111%	
CC[C@H](C)[C@H](NC(=O)[C@H](Cc1ccccc1)NC(=O)[C@H](CCC(=O)O)NC(=O)[C@H](CCCCN)NC(=O)[C@@H](NC(=O)[C@H](C)NC(=O)[C@H](CCC(=O)O)NC(=O)CNC(=O)[C@H](CCC(=O)O)NC(=O)[C@H](Cc1ccc(O)cc1)NC(=O)[C@H](Cc1ccc(O)cc1)NC(=O)[C@H](CO)NC(=O)[C@H](CO)NC(=O)[C@@H](NC(=O)[C@H](CC(=O)O)NC(=O)[C@H](Cc1c[nH]cn1)NC(=O)[C@@H](NC(=O)[C@H](Cc1ccccc1)NC(=O)[C@@H](NC(=O)CNC(=O)[C@H](CCC(=O)O)NC(=O)[C@H](C)NC(=O)[C@@H](N)Cc1c[nH]cn1)[C@@H](C)O)[C@@H](C)O)C(C)C)C(C)C)C(=O)N[C@@H](C)C(=O)N[C@@H](Cc1c[nH]c2ccccc12)C(=O)N[C@@H](CC(C)C)C(=O)N[C@H](C(=O)N[C@@H](CCC(=O)O)C(=O)N[C@@H](CCCCN)C(=O)NC(C)(C)C(=O)N[C@@H](CCCCN)C(=O)N[C@@H](CCC(=O)O)C(=O)N[C@@H](Cc1ccccc1)C(=O)N[C@@H](CC(C)C)C(N)=O)C(C)C [Compound 15, [His4,Tyr20,Glu23,Val25,Glu34,Lys35,Aib36,Lys37]-GLP-1-(7-37)-peptidyl-Glu-Phe-Leu amide] (H-HAEGTFTHDVSSYYEGEAVKEFIAWLVEK[Aib]KEFL-NH2; N-terminus assumed)	0.101 nM			
HAEGTFTSDVSSYLEGQAAKEFIAWLVEKVKEFLE-NH2 [Compound 106, [Glu34,Lys35,Val36,Lys37]-GLP-1-(7-37)-peptidyl-Glu-Phe-Leu-Glu amide]	0.028 nM	0.114 nM		
HAEGTFTSDVSSYLEGQAAKEFIAWLVEKVKEFY-NH2 [Compound 131, [Glu34,Lys35,Val36,Lys37]-GLP-1-(7-37)-peptidyl-Glu-Phe-Tyr amide]	0.014 nM	0.037 nM		
HAEGTFTNDMTNYLEGEAVKEFIAWLVEKGKEFL-NH2 [Compound 27, [Asn14,Met16,Thr17,Asn18,Glu23,Val25,Glu34,Lys35,Gly36,Lys37]-GLP-1-(7-37)-peptidyl-Glu-Phe-Leu amide]	0.028 nM			

Now from value to compound, other results behind:

EC50 [2, 3]	EC50 [2, 4]	Compound	4 h Cholesterol Efflux Emax [1]	EC50 [1]
0.077 nM		CC[C@H](C)[C@H](NC(=O)[C@H](Cc1ccccc1)NC(=O)[C@H](CCC(=O)O)NC(=O)[C@H](CCCCN)NC(=O)[C@@H](NC(=O)[C@H](C)NC(=O)[C@H](CCC(=O)O)NC(=O)CNC(=O)[C@H](CCC(=O)O)NC(=O)[C@H](CC(C)C)NC(=O)[C@H](Cc1ccc(O)cc1)NC(=O)[C@H](CC(N)=O)NC(=O)[C@@H](NC(=O)[C@H](CCSC)NC(=O)[C@H](CC(=O)O)NC(=O)[C@H](CC(N)=O)NC(=O)[C@@H](NC(=O)[C@H](Cc1ccccc1)NC(=O)[C@@H](NC(=O)CNC(=O)[C@H](CCC(=O)O)NC(=O)[C@H](C)NC(=O)[C@@H](N)Cc1c[nH]cn1)[C@@H](C)O)[C@@H](C)O)[C@@H](C)O)C(C)C)C(=O)N[C@@H](C)C(=O)N[C@@H](Cc1c[nH]c2ccccc12)C(=O)N[C@@H](CC(C)C)C(=O)N[C@H](C(=O)N[C@@H](CCC(=O)O)C(=O)N[C@@H](CCCCN)C(=O)NC(C)(C)C(=O)N[C@@H](CCCCN)C(=O)N[C@@H](CCC(=O)O)C(=O)N[C@@H](Cc1ccccc1)C(=O)N[C@@H](CC(C)C)C(N)=O)C(C)C [Compound 44, [Asn14,Met16,Thr17,Asn18,Glu23,Val25,Glu34,Lys35,Aib36,Lys37]-GLP-1-(7-37)-peptidyl-Glu-Phe-Leu amide] (H-HAEGTFTNDMTNYLEGEAVKEFIAWLVEK[Aib]KEFL-NH2; N-terminus assumed)		
0.03 nM		HAEGTFTSDVSSYLEGQAAKEFIAWLVEKVHEFL-NH2 [Compound 141]		
	0.103 nM	HAEGTFTSDVSSYLEGQAAKEFIAWLVEHVKEFL-NH2 [Compound 140, [Glu34,His35,Val36,Lys37]-GLP-1-(7-37)-peptidyl-Glu-Phe-Leu amide]		
0.044 nM	0.086 nM	CC[C@H](C)[C@H](NC(=O)[C@H](Cc1ccccc1)NC(=O)[C@H](CCC(=O)O)NC(=O)[C@H](CCCCN)NC(=O)[C@H](C)NC(=O)[C@H](C)NC(=O)[C@H](CCCCN)NC(=O)[C@H](CCC(=O)O)NC(=O)[C@H](CCC(=O)O)NC(=O)[C@H](CC(C)C)NC(=O)[C@H](Cc1ccc(O)cc1)NC(=O)[C@H](CCCCN)NC(=O)[C@H](CO)NC(=O)[C@H](Cc1ccc(O)cc1)NC(=O)[C@H](CC(=O)O)NC(=O)[C@H](CO)NC(=O)[C@@H](NC(=O)[C@H](Cc1ccccc1)NC(=O)[C@@H](NC(=O)CNC(=O)[C@H](CCC(N)=O)NC(=O)[C@H](CO)NC(=O)[C@@H](N)Cc1c[nH]cn1)[C@@H](C)O)[C@@H](C)O)C(=O)N[C@@H](C)C(=O)N[C@@H](Cc1c[nH]c2ccccc12)C(=O)N[C@@H](CC(C)C)C(=O)N[C@@H](CC(C)C)C(=O)N[C@@H](CCC(=O)O)C(=O)N[C@@H](CCCCN)C(=O)NC(C)(C)C(=O)N[C@@H](CCCCN)C(=O)N[C@@H](CCC(=O)O)C(=O)N[C@@H](Cc1ccccc1)C(=O)N[C@@H](CC(C)C)C(N)=O [Compound 57] (H-HSQGTFTSDYSKYLEEKAAKEFIAWLLEK[Aib]KEFL-NH2)		

Source: US20150344540A1, “NOVEL GLP-1 RECEPTOR AGONISTS WITH CHOLESTEROL EFFLUX ACTIVITY” (NOVO NORDISK A/S, priority 2012, published 2015)
